We go through one compound from US20160374979A1, “Method of Treatment of Alopecia with Monoterpenoids” (CELLMID LIMITED, priority 2013, published 2016).

The subject of experiment [1] is murine vibrissae follicles. In words: Hair shaft elongation of murine vibrissae follicles cultured ex vivo. More on the design: species or system C3H mice. Particulars: piperitone 0.1 mg/mL in culture medium. The text has this: Five week old male C3H mice (supplied by Japan SLC, lnc., Hamamatsu, Japan) were used for isolation of vibrissae follicles. The mice were sacrificed and the vibrissae follicles were carefully dissected from the mystacial pad. Briefly, the mystacial pad was cut into two sides (left and right). The skin cut, picked at the edge by tweezers, was washed in (i) 70% Ethanol for 30 seconds, (ii) PBS for 10 seconds, (iii) fresh PBS for 10 seconds, and (iv) another fresh PBS for 10 seconds. This washing process was repeated twice. After washing, the skin cut was placed inverted to expose the vibrissae follicles in Dulbecco's Modified Eagle's Medium (DMEM; Wako Pure Chemical, Osaka, Japan) at 37° C. Under a dissecting microscope, the surrounding tissue was removed from the follicles using tweezers, carefully so as not to destroy the structure of the follicles. The isolated follicles were then placed immediately into Williams' E medium (Life Technologies, Carlsbad, USA).
From the isolated mouse vibrissae follicles, only early anagen follicles were selected and randomized into groups with 30 follicles per group. […]
Follicles in each of the treatment and control groups were incubated at 37° C. at 5% CO2 for 8 days, while exchanging the respective culture mediums every 2 days. From Day 1, elongation of hair shafts was observed and the elongation length was measured for each hair shaft every 24 hours from Day 1 to Day 8 using a micrometer under microscope. […]
Follicles in each of the treatment and control groups were incubated at 37° C. at 5% CO2 for 5 days, while exchanging the culture medium every 3 days. From Day 1, elongation of hair shafts was observed and the elongation length was measured for each hair shaft every 24 hours from Day 1 to Day 5. using a micrometer under microscope. […]

The subject of experiment [2] is Alkaline Phosphatase (ALP) activity in dermal papilla (DP) cells treated with FGF-5. Put plainly: Dermal papilla alkaline phosphatase (DP-ALP) cell assay. In kind it is cell-based, human. Particulars: for relative ALP activity of DP cells treated FGF-5: 0.005-0.5 mg/ml, GSK3 inhibitor IX + rhFGF-5 1 μg/mL, 3 days, absorbance 490 nm. As for the experimental part:
Dermal papilla cells were prepared according to the methods described in WO2013/105417, Briefly, hairs were pulled from the scalp of a healthy subject showing normal non-alopecia hair growth using tweezers. Hair follicles with dermal papilla were thus obtained at a rate of approximately one for every 100 hairs pulled. The hair follicles with dermal papilla were separated from the hair using tweezers and transferred into a saline for inspection under a microscope. Under a microscope, each dermal papilla was isolated from a respective hair follicle using tweezers and a scalpel. Approximately 2000 isolated dermal papilla cells were then transferred to a 35 mm cell culture dish together 1-2 ml of cell culture medium, after which time the cells were cultured at 37° C. to produce a primary cell culture of dermal papilla. The cell culture medium consisted of approximately 90% DMEM medium, 10% fetal bovine serum (final concentration: 10%), FGF2 (final, concentration: 10 ng/ml), and penicillin-streptornycin solution (final concentration: 1 μg/ml) for every 2 mL of medium. Cell culture conditions were maintained for more than 14 days until dermal papilla cells covered approximately 40% of the area of the 35 mm culture dish, at which time subcultures were performed. To prepare the subcultures, the cell culture medium was removed from the 35 mm culture dish and the adherent cells were washed once with 2 ml of saline (at room temperature). 1 ml Trypsin-EDTA solution (0.1% trypsin and 0.02% EDTA) was then added to the 35 mm culture dish and left to stand for 4 minutes at 37° C. Dissociated dermal papilla cells were then recovered from the 35 mm dish, and seeded to a new 100 mm dish, and cultured in media under the same conditions as for the primary cell culture described above.
When the dermal papilla cells covered approximately 70-80% of the area of each 100 mm culture dish, the sub-confluent cells were subcultured as before. The process was repeated until sufficient cells were obtained to screen compounds of interest.
Once sufficient DP cells were obtained, the cells were harvested to provide a cell suspension. To harvest the DP cells, the cell culture medium was removed from the culture dish, and the adherent cells were washed with saline at room temperature. Trypsin-EDTA solution was then added under conditions described supra to dissociate the cells from the cell culture dish. Approximately 5×10^5 of the dissociated cells were resuspended in 500 ml of assay medium containing 445 ml of DMEM medium, 50 ml of 10% fetal calf serum and 5 ml of antibiotic.
Aliquots of the cell suspension were transferred to the wells of cell culture dishes, and a single monoterpenoid listed in Example 1 e.g., (−)-4-terpinen-4-ol, (+)-4-terpinen-4-ol. (±)-4-terpinen-4-ol, α-terpineol, nonanal, linalyl acetate or piperitone, is added to each well at a concentration of 0.005 (mg/ml) or 0.01 (mg/ml) or 0.05 (mg/ml) or 0.1 (mg/ml) or 0.5 (mg/ml). Cell suspensions were transferred to wells of a further cell culture dish to which minoxidil was then added at a concentration of 0.005 (mg/ml) or 0.01 (mg/ml) or 0.05 (mg/ml) or 0.1 (mg/ml) or 0.5 (mg/ml). A Wnt/β-catenin pathway activation agent e.g., Wnt3a or GSK-3 Inhibitor IX, as added to each of the cell cultures to produce an “activated cell culture”. Control cell cultures containing the same monoterpenoid compound or minoxodil, but lacking the Wnt/β-cinenin pathway activation agent, were processed in parallel. These activated and control cell cultures were divided further into duplicate cell culture samples either lacking FGF-5 or to which recombinant human FGF-5 (rhFGF-5; 1 μg/mL)) was added.
The cell culture samples were each cultured at 37° C. for 3 days under atmosphere containing less than 5% CO2. […]

The structures appear in SMILES notation. Entries after “also recorded” stand apart in the source; their conditions may differ.

As for `CC1=CC(=O)C(C(C)C)CC1` (centres unmarked) [Piperitone, 3-Methyl-6-(propan-2-yl)cyclohex-2-en-1-one], the “hair shaft elongation over time” value in experiment [1] (5 days (FIG. 22)) was “continued steadily and consistently throughout the culture period”. For the same compound, in experiment [1] (versus control), the hair growth result is recorded as “increased hair growth”. In addition, the results for the “relative ALP activity of DP cells treated FGF-5” value in experiment [2] and in experiment [2] (listed as piperitone) were “increased relative ALP activity” and “high alkaline phosphatase activity; also recorded: higher alkaline phosphatase activity in dermal papillae than a racemic mixture of terpinen-4-al or (+)-Terpinen-4-ol”, respectively. The “FGF-5-inhibitory activity ranked from most active to least active by DP-ALP assay” value in experiment [2] (rank order) was “Piperitone>(−)-terpinen-4-ol>(±)-Terpinen-4β-Terpineol> (+)-Terpinen-4-ol > Linalyl Acetate”.
